Measurements published in patent US20180042918A1, “RESPIRATORY INFECTION TREATING AGENT” (KYORIN PHARMACEUTICAL CO., LTD., priority 2015, published 2018).
Values after ≈ are worked out from the molar mass of the structure shown. Read-outs that look alike come from different tables or passages of the source. Marks after values point to notes of the source that are not given here.

Key:
S. pneumoniae IID553 = assay: microbe, parasite or virus in culture; format: cell-based; details: Streptococcus pneumoniae
S. pneumoniae CF9842 = assay: microbe, parasite or virus in culture; format: cell-based; details: Streptococcus pneumoniae
S. pneumoniae GF9821 = assay: microbe, parasite or virus in culture; format: cell-based; details: Streptococcus pneumoniae
S. pneumoniae ST9941 = assay: microbe, parasite or virus in culture; format: cell-based; details: Streptococcus pneumoniae
S. pneumoniae SN9981 = assay: microbe, parasite or virus in culture; format: cell-based; details: Streptococcus pneumoniae
S. pneumoniae KY-9 = assay: Number of bacteria in the lung, mouse lung infection; format: in vivo, Streptococcus pneumoniae
Protocol: S. pneumoniae KY-9 was inoculated at 7.4×10^5 CFU/mouse via the respiratory tract into the lung in a mouse in which cyclophosphamide had been administrated. 2.9 to 3.1 hours, 17.3 to 19.1 hours, and 24.4 to 26.1 hours after the inoculation, the drug (the compound D, levofloxacin, or garenoxacin) was subcutaneously administrated (SC) or orally administrated (PO) three times in total. The number of bacteria in the lung 16.5 to 17.0 hours after the final administration was measured.
“*” described in FIGS. 1 and 2 means that a significant difference of p<0.05 in a Vehicle group was observed, and “**” means that a significant difference of p<0.001 in the Vehicle group was observed (Dunnett's multiple comparison test, parametric).
Here, CFU is an abbreviation of Colony Forming Unit, and represents the unit of number of bacteria. Log CFU/Lung means the number of viable bacteria in the lung. Log CFU/Lung was determined as follows. The lung obtained from the mouse was homogenated to obtain a bacterial culture. The bacterial culture was appropriately diluted, applied to an agar plate medium, and cultured. Log CFU/Lung was determined on the basis of the number of developed colonies.

[1] = tested on: H. influenzaes (26 STRAINS); assay: Antibacterial activity against clinically isolated strains, MIC90; format: cell-based; details: Haemophilus influenzae, 26 clinically isolated strains
Protocol: (§1) The antibacterial activities in vitro of the compound D, garenoxacin, and levofloxacin against each clinically isolated strain of Streptococcus pneumoniae, Moraxella catarrhalis, and Haemophilus influenzae were measured in accordance with a CLSI microdilution method or a CLSI agar dilution method. A MIC90 value was the minimum concentration in which the growth of 90% strain of all the measured strains was inhibited.

[2] = tested on: M. catarrhalis (26 STRAINS); assay: as above; format: cell-based; details: Moraxella catarrhalis, 26 clinically isolated strains
Protocol: as §1

[3] = tested on: PCG-LOW SENSITIVE S. pneumoniae (22 STRAINS); assay: as above; format: cell-based; details: Streptococcus pneumoniae, 22 clinically isolated strains
Protocol: as §1

PSSP (26 STRAINS) = assay: as above; format: cell-based; details: Streptococcus pneumoniae, 26 clinically isolated strains
Protocol: as §1

S. aureus ATCC29213 [4] = assay: MIC of strain used for resistance frequency test; format: cell-based; details: Staphylococcus aureus; S. aureus ATCC29213; read-out: MIC
E. coli ATCC25922 [5] = assay: microbe, parasite or virus in culture; format: cell-based; details: Escherichia coli
S. pneumoniae ATCC49619 [6] = assay: microbe, parasite or virus in culture; format: cell-based; details: Streptococcus pneumoniae
S. aureus ATCC29213 [7] = assay: Frequency of development of resistant bacteria; format: cell-based, Staphylococcus aureus; details: for development of resistant bacteria (in words): S. aureus ATCC29213, 4 to 16 × MIC; for FREQUENCY OF DEVELOPMENT OF RESISTANT BACTERIA (AVERAGE OF TWO MEASURED VALUES): about 70 hours
Protocol: (§2) S. aureus ATCC29213 is Staphylococcus aureus, S. pneumoniae ATCC49619 is Streptococcus pneumoniae, and E. coli ATCC25922 is Escherichia coli. […]
(§3) The frequency of development of resistant bacteria was calculated by dividing the number of colonies developed on an agar medium having each drug concentration by the number of initially inoculated bacteria.

E. coli ATCC25922 [8] = assay: Frequency of development of resistant bacteria; format: cell-based, Escherichia coli; details: for FREQUENCY OF DEVELOPMENT OF RESISTANT BACTERIA (AVERAGE OF TWO MEASURED VALUES): about 70 hours
Protocol: as §2, §3

S. pneumoniae ATCC49619 [9] = assay: Frequency of development of resistant bacteria; format: cell-based, Streptococcus pneumoniae; details: for FREQUENCY OF DEVELOPMENT OF RESISTANT BACTERIA (AVERAGE OF TWO MEASURED VALUES): about 70 hours
Protocol: as §2, §3

[10] = molecular target: DNA gyrase derived from S. aureus (Staphylococcus aureus, UniProt P0A0K8+P20831); assay: Enzyme inhibitory activity, supercoiling of relaxed pBR322; format: biochemical
Protocol: (§4) Agents Chemother. 45: 3544-3547 (2001). […] The measurement was performed in the same manner as in Test Example 3. Similarly, the inhibitory activities of ciproxacin, levofloxacin, and garenoxacin were measured. The results were compared.

[11] = molecular target: QUINOLONE RESISTANT DNA gyrase (quinolone-resistant S. aureus) (Staphylococcus aureus, UniProt P20831); assay: as above; format: biochemical
Protocol: as §4

S. aureus MS5935 = assay: Antibacterial activity against quinolone-resistant strain in vitro, CLSI dilution; format: cell-based; details: Staphylococcus aureus; S. aureus MS5935, PARENT STRAIN, gyrA None, grlA None
[12] = tested on: S. aureus MS5935 gyrA mutant; assay: microbe, parasite or virus in culture; format: cell-based; details: Staphylococcus aureus
S. aureus MS5935 1st = assay: microbe, parasite or virus in culture; format: cell-based; details: Staphylococcus aureus, MS59351ST
S. aureus MS5935 2nd = assay: microbe, parasite or virus in culture; format: cell-based; details: Staphylococcus aureus, MS59352ND
S. aureus MS5935 3rd = assay: microbe, parasite or virus in culture; format: cell-based; details: Staphylococcus aureus, MS59353RD
S. aureus MS5935 4th = assay: microbe, parasite or virus in culture; format: cell-based; details: for MIC: Staphylococcus aureus, MS59354TH
[13] = S. pneumoniae ATCC49619, 4 × MIC
[14] = S. pneumoniae ATCC49619, 8 × MIC
[15] = S. pneumoniae ATCC49619, 16 × MIC

Compound	MIC (S. pneumoniae IID553) [µg/mL]	MIC (S. pneumoniae CF9842) [µg/mL]	MIC (S. pneumoniae GF9821) [µg/mL]	MIC (S. pneumoniae ST9941) [µg/mL]	MIC (S. pneumoniae SN9981) [µg/mL]	MIC90 [1] [µg/mL]	MIC90 [2] [µg/mL]	MIC90 [3] [µg/mL]	MIC90 (PSSP (26 STRAINS)) [µg/mL]	MIC (S. aureus ATCC29213 [4]) [µg/mL]	MIC (E. coli ATCC25922 [5]) [µg/mL]	MIC (S. pneumoniae ATCC49619 [6]) [µg/mL]	development of resistant bacteria (in words) (S. aureus ATCC29213 [7])	FREQUENCY OF DEVELOPMENT OF RESISTANT BACTERIA (AVERAGE OF TWO MEASURED VALUES) (S. aureus ATCC29213 [7]; S. aureus ATCC29213, 4 × MIC)	FREQUENCY OF DEVELOPMENT OF RESISTANT BACTERIA (AVERAGE OF TWO MEASURED VALUES) (S. aureus ATCC29213 [7]; S. aureus ATCC29213, 8 × MIC)	FREQUENCY OF DEVELOPMENT OF RESISTANT BACTERIA (AVERAGE OF TWO MEASURED VALUES) (S. aureus ATCC29213 [7]; S. aureus ATCC29213, 16 × MIC)	FREQUENCY OF DEVELOPMENT OF RESISTANT BACTERIA (AVERAGE OF TWO MEASURED VALUES) (E. coli ATCC25922 [8]; E. coli ATCC25922, 4 × MIC)	FREQUENCY OF DEVELOPMENT OF RESISTANT BACTERIA (AVERAGE OF TWO MEASURED VALUES) (E. coli ATCC25922 [8]; E. coli ATCC25922, 8 × MIC)	FREQUENCY OF DEVELOPMENT OF RESISTANT BACTERIA (AVERAGE OF TWO MEASURED VALUES) (E. coli ATCC25922 [8]; E. coli ATCC25922, 16 × MIC)	FREQUENCY OF DEVELOPMENT OF RESISTANT BACTERIA (AVERAGE OF TWO MEASURED VALUES) (S. pneumoniae ATCC49619 [9]; [13])	other results
COc1c(N2C[C@H](CNC3CC3)[C@H](F)C2)c(F)cc2c(=O)c(C(=O)O)cn(CCF)c12.Cl [Compound D, 7-[(3S,4S)-3-{(cyclopropylamino)methyl}-4-fluoropyrrolidine-1-yl]-6-fluoro-1-(2-fluoroethyl)-8-methoxy-4-oxo-1,4-dihydroquinoline-3-carboxylic acid hydrochloride]	0.06	0.06	0.125	0.5	0.25	0.06	0.06	0.06	0.06	0.008	0.06	0.06	not observed	<2.1 × 10^−9	<2.1 × 10^−9	<2.1 × 10^−9	<1.9 × 10^−9	<1.9 × 10^−9	<1.9 × 10^−9	<1.1 × 10^−8	therapeutic effect, number of bacteria in the lung (S. pneumoniae KY-9; oral administration): excellent as compared with garenoxacin and levofloxacin; decrease in number of bacteria in the lung versus Vehicle (S. pneumoniae KY-9; subcutaneous, 6.3 mg and 25 mg/kg): significant dose-dependent decrease; difference in number of viable bacteria in the lung, compound D versus garenoxacin (S. pneumoniae KY-9; subcutaneous, 25 mg/kg groups): about 1,000 times; development of resistant bacteria (in words) (E. coli ATCC25922 [8]; E. coli ATCC25922, 4 to 16 × MIC): not observed; development of resistant bacteria (in words) (S. pneumoniae ATCC49619 [9]; S. pneumoniae ATCC49619, 4 to 16 × MIC): not observed; FREQUENCY OF DEVELOPMENT OF RESISTANT BACTERIA (AVERAGE OF TWO MEASURED VALUES) (S. pneumoniae ATCC49619 [9]; [14]): <1.1 × 10^−8; FREQUENCY OF DEVELOPMENT OF RESISTANT BACTERIA (AVERAGE OF TWO MEASURED VALUES) (S. pneumoniae ATCC49619 [9]; [15]): <1.1 × 10^−8; IC50 [10]: 3.57 µM; IC50 ([11]; read-out: IC50 VALUE, QUINOLONE RESISTANT DNA gyrase, average of three or average ± SD): 35.7 µM; MIC (S. aureus MS5935): 0.015 µg/mL; MIC [12]: 0.03 µg/mL; MIC (S. aureus MS5935 1st): 0.03 µg/mL; MIC (S. aureus MS5935 2nd): 0.125 µg/mL; MIC (S. aureus MS5935 3rd): 0.5 µg/mL; potency (action strength) relative to the other quinolone compounds (S. aureus MS5935 4th; 4th step quadruple mutant S. aureus, from MIC): ≥ 16 times; MIC (S. aureus MS5935 4th): 2 µg/mL
C[C@H]1NCc2cc(-c3ccc4c(=O)c(C(=O)O)cn(C5CC5)c4c3OC(F)F)ccc21 [GRNX, garenoxacin]	0.06 (≈ 0.141 µM)	0.125 (≈ 0.293 µM)	0.25 (≈ 0.586 µM)	2 (≈ 4.69 µM)	1 (≈ 2.35 µM)	0.015 (≈ 0.0352 µM)	0.015 (≈ 0.0352 µM)	0.06 (≈ 0.141 µM)	0.06 (≈ 0.141 µM)	0.015	0.03 (≈ 0.0704 µM)	0.06 (≈ 0.141 µM)	developed	8.2 × 10^−9*	<2.1 × 10^−9	<2.1 × 10^−9	<1.9 × 10^−9	<1.9 × 10^−9	<1.9 × 10^−9	<1.1 × 10^−8	significant decrease in number of bacteria in the lung versus Vehicle (S. pneumoniae KY-9; subcutaneous, 6.3 mg/kg): not observed; significant decrease in number of bacteria in the lung versus Vehicle (S. pneumoniae KY-9; subcutaneous, 25 mg/kg): a significant decrease in number of bacteria in the lung was observed; FREQUENCY OF DEVELOPMENT OF RESISTANT BACTERIA (AVERAGE OF TWO MEASURED VALUES) (S. pneumoniae ATCC49619 [9]; [14]): <1.1 × 10^−8; FREQUENCY OF DEVELOPMENT OF RESISTANT BACTERIA (AVERAGE OF TWO MEASURED VALUES) (S. pneumoniae ATCC49619 [9]; [15]): <1.1 × 10^−8; IC50 ([10]; S. aureus enzyme, average of three or average ± SD, read-out: IC50 VALUE, DNA gyrase (converted)): 25.8 µM; IC50 ([11]; average of three or average ± SD, read-out: IC50 VALUE, QUINOLONE RESISTANT DNA gyrase (converted)): 985 µM; MIC (S. aureus MS5935): 0.015 µg/mL (≈ 0.0352 µM); MIC [12]: 0.06 µg/mL (≈ 0.141 µM); MIC (S. aureus MS5935 1st): 0.03 µg/mL (≈ 0.0704 µM); MIC (S. aureus MS5935 2nd): 2 µg/mL (≈ 4.69 µM); MIC (S. aureus MS5935 3rd): 8 µg/mL (≈ 18.8 µM); MIC (S. aureus MS5935 4th): 32 µg/mL (≈ 75 µM)
